Measured values as given in patent publication US7119094B1, “Substituted polycyclic aryl and heteroarpyl pyrazinones useful for selective inhibition of the coagulation cascade” (Warner-Lambert Company, priority 2000, dated 2006).
Like-named read-outs stand apart in the source and are kept apart here.

What was measured:
[1] = molecular target: T1, recombinant soluble tissue factor and recombinant human factor VIIa (TF-VIIa) (Homo sapiens, UniProt P08709); test: TF-VIIa Assay; format: biochemical
T1 construct: conversion of coagulation factor VII to VIIa by Xa; purchased American Diagnostica, Greenwich Conn; host or cells: factor VIIa purchased; soluble TF made in house in E. coli
T1 sequence (P08709 213-466 limits assumed): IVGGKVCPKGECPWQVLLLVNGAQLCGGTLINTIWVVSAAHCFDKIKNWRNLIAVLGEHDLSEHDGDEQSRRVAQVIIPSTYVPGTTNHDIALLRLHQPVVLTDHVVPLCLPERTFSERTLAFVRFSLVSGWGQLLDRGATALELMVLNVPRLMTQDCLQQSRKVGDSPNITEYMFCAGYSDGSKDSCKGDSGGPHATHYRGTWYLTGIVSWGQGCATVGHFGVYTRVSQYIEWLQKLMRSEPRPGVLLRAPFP
T1 sequence (P08709 61-212 limits assumed): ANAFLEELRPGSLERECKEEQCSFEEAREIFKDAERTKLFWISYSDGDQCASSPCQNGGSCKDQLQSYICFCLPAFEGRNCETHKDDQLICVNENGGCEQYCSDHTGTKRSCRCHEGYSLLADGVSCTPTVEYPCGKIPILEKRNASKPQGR
T1 sequence (P13726 33-251 partner limits assumed): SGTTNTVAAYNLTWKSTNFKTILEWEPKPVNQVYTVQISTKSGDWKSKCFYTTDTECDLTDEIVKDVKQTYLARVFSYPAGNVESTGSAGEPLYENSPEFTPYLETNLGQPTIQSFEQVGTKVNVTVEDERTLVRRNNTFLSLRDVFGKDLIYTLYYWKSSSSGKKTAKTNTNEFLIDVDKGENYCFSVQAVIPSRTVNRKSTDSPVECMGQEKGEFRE

[2] = molecular target: T2, Trypsin (type 1× from porcine pancreas) (Sus scrofa, UniProt P00761); test: Trypsin Assay; format: biochemical
T2 construct: Trypsin (5 ug/ml; type 1× from porcine pancreas); purchased Sigma, St. Louis Mo; host or cells: porcine pancreas
T2 sequence (P00761 9-231): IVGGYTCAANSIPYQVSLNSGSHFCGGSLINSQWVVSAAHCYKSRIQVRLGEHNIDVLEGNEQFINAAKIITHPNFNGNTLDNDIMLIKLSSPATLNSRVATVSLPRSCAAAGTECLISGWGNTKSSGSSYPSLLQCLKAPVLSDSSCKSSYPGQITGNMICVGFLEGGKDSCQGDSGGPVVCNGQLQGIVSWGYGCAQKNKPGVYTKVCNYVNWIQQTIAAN

Row | Compound | % Inhibition TF-VIIa (100 νM) ([1]; inhibitor at 100 νM) | % Inhibition Trpysin II (100 νM) ([2]; inhibitor at 100 νM) | % Inhibition TF-VIIa (100 νM) [1] | % Inhibition Trpysin II (100 νM) [2]
1 | O=C(Cn1c(-c2ccc(Cl)cc2)c(Cl)nc(NCCc2ccncc2)c1=O)NCCc1ccncc1 [Example E-0030] | 0% | 4% | – | –
2 | O=C(Cn1c(-c2cccc(Cl)c2)c(Cl)nc(NCCc2ccccc2)c1=O)NCCc1ccncc1 [Example E-0076] | 0% | 10% | – | –
3 | O=C(Cn1c(-c2ccc3c(c2)OCO3)c(Cl)nc(NCCc2ccncc2)c1=O)NCCc1ccncc1 [Example E-0046] | 0% | 4% | – | –
4 | O=C(Cn1c(-c2ccc(-c3ccccc3)cc2)c(Cl)nc(NCCc2ccccc2)c1=O)NCCc1ccncc1 [Example E-0050] | – | – | 0% | 0%
5 | O=C(Cn1c(-c2ccc(-c3ccccc3)cc2)c(Cl)nc(NCCc2ccccc2)c1=O)NCCc1ccncc1 [Example E-0112] | – | – | 11% | 13%
6 | O=C(Cn1c(-c2cccc(Cl)c2)c(Cl)nc(NCCc2ccccc2)c1=O)NCCc1cccnc1 [Example E-0089] | 3% | 8% | – | –
7 | O=C(Cn1c(-c2cccc(Cl)c2)c(Cl)nc(NCCc2cccc(Cl)c2)c1=O)NCCc1cccnc1 [Example E-0080] | 1% | 5% | – | –
8 | O=C(Cn1c(-c2ccccc2)c(Cl)nc(NCCc2ccccc2)c1=O)NCCc1ccncc1 [Example E-0010] | 0% | 0% | – | –
9 | O=C(Cn1c(-c2ccccc2)c(Cl)nc(NCc2ccncc2)c1=O)NCCc1ccncc1 [Example E-0016] | 0% | 4% | – | –
10 | COc1ccc(-c2c(Cl)nc(NCc3ccccc3)c(=O)n2CC(=O)NCCc2ccncc2)cc1 [Example E-0097] | 0% | 11% | – | –
11 | O=C(Cn1c(CCc2ccccc2)c(Cl)nc(NCCc2ccc(Cl)cc2)c1=O)NCCc1ccncc1 [Example E-0068] | 0% | 0% | – | –
12 | O=C(Cn1c(CCc2ccccc2)c(Cl)nc(NCCc2ccccc2)c1=O)NCCc1ccncc1 [Example E-0066] | 0% | 0% | – | –
13 | COc1ccc(-c2c(Cl)nc(NCc3ccncc3)c(=O)n2CC(=O)NCCc2ccncc2)cc1 [Example E-0040] | 0% | 4% | – | –
14 | O=C(Cn1c(Cc2ccccc2)c(Cl)nc(NCc2ccccc2)c1=O)NCCc1ccncc1 [Example E-0057] | 0% | 0% | – | –
15 | O=C(Cn1c(Cc2ccccc2)c(Cl)nc(NCCc2cccc(Cl)c2)c1=O)NCCc1ccncc1 [Example E-0059] | 0% | 0% | – | –
16 | O=C(Cn1c(-c2cccc(Cl)c2)c(Cl)nc(NCCc2ccccc2)c1=O)NCCc1ccncc1 [Example E-0088] | 0% | 9% | – | –
17 | O=C(Cn1c(-c2ccc3c(c2)OCO3)c(Cl)nc(NCCc2cccc(Cl)c2)c1=O)NCCc1ccncc1 [Example E-0043] | 0% | 3% | – | –
18 | O=C(Cn1c(Cc2ccccc2)c(Cl)nc(NCCc2ccncc2)c1=O)NCCc1ccncc1 [Example E-0062] | 0% | 0% | – | –
19 | O=C(Cn1c(-c2ccc(Cl)cc2)c(Cl)nc(NCCc2ccccc2)c1=O)NCCc1ccncc1 [Example E-0018] | 1% | 4% | – | –
20 | Cc1c(Cl)nc(NCCc2cccc(Cl)c2)c(=O)n1CC(=O)NCCc1ccncc1 [Example E-0003] | 0% | 0% | – | –
21 | O=C(Cn1c(Cc2ccccc2)c(Cl)nc(NCCc2cccnc2)c1=O)NCCc1ccncc1 [Example E-0061] | 0% | 0% | – | –
22 | O=C(Cn1c(-c2cccc(Cl)c2)c(Cl)nc(NCCc2ccc(Cl)cc2)c1=O)NCCc1ccncc1 [Example E-0082] | 4% | 3% | – | –
23 | O=C(Cn1c(-c2ccc(-c3ccccc3)cc2)c(Cl)nc(NCc2ccccc2)c1=O)NCCc1ccncc1 [Example E-0049] | – | – | 2% | 0%
24 | O=C(Cn1c(CCc2ccccc2)c(Cl)nc(NCCc2cccc(Cl)c2)c1=O)NCCc1ccncc1 [Example E-0067] | 0% | 0% | – | –
25 | O=C(Cn1c(-c2ccc3c(c2)OCO3)c(Cl)nc(NCc2ccncc2)c1=O)NCCc1ccncc1 [Example E-0048] | 0% | 0% | – | –
26 | Cc1c(Cl)nc(NCc2ccccc2)c(=O)n1CC(=O)NCCc1ccncc1 [Example E-0001] | 0% | 0% | – | –
27 | O=C(Cn1c(-c2ccc(-c3ccccc3)cc2)c(Cl)nc(NCCc2ccc(Cl)cc2)c1=O)NCCc1ccncc1 [Example E-0052] | – | – | 0% | 0%
28 | O=C(Cn1c(CCc2ccccc2)c(Cl)nc(NCCc2ccncc2)c1=O)NCCc1ccncc1 [Example E-0070] | 0% | 0% | – | –
29 | O=C(Cn1c(CCc2ccccc2)c(Cl)nc(NCc2ccccc2)c1=O)NCCc1ccncc1 [Example E-0065] | 0% | 0% | – | –
30 | O=C(Cn1c(-c2cccc(Cl)c2)c(Cl)nc(NCCc2cccc(Cl)c2)c1=O)NCCc1cccnc1 [Example E-0092] | 1% | 9% | – | –

More lines, main results first:

Row | % Inhibition TF-VIIa (100 νM) ([1]; inhibitor at 100 νM) | % Inhibition Trpysin II (100 νM) ([2]; inhibitor at 100 νM) | Compound | % Inhibition TF-VIIa (100 νM) [1] | % Inhibition Trpysin II (100 νM) [2]
31 | 0% | 6% | O=C(Cn1c(-c2cccc(Cl)c2)c(Cl)nc(NCc2ccccc2)c1=O)NCCc1ccncc1 [Example E-0073] | – | –
32 | 0% | 2% | O=C(Cn1c(-c2ccc(Cl)cc2)c(Cl)nc(NCCc2ccncc2)c1=O)NCCc1ccncc1 [Example E-0022] | – | –
33 | 2% | 7% | O=C(Cn1c(-c2cccc(Cl)c2)c(Cl)nc(NCCc2ccc(Cl)cc2)c1=O)NCCc1ccncc1 [Example E-0094] | – | –
34 | 0% | 2% | O=C(Cn1c(-c2ccc3c(c2)OCO3)c(Cl)nc(NCc2ccccc2)c1=O)NCCc1ccncc1 [Example E-0041] | – | –
35 | 0% | 5% | O=C(Cn1c(-c2ccc(Cl)cc2)c(Cl)nc(NCCc2cccnc2)c1=O)NCCc1ccncc1 [Example E-0021] | – | –
36 | 0% | 9% | O=C(Cn1c(-c2cccc(Cl)c2)c(Cl)nc(NCc2ccccc2)c1=O)NCCc1ccncc1 [Example E-0085] | – | –
37 | 0% | 2% | O=C(Cn1c(-c2ccc(Cl)cc2)c(Cl)nc(NCCc2cccnc2)c1=O)NCCc1ccncc1 [Example E-0029] | – | –
38 | 0% | 0% | O=C(Cn1c(CCc2ccccc2)c(Cl)nc(NCc2ccncc2)c1=O)NCCc1ccncc1 [Example E-0072] | – | –
39 | 0% | 1% | O=C(Cn1c(-c2ccc(Cl)cc2)c(Cl)nc(NCc2ccccc2)c1=O)NCCc1ccncc1 [Example E-0017] | – | –
40 | 0% | 0% | Cc1c(Cl)nc(NCCc2ccc(Cl)cc2)c(=O)n1CC(=O)NCCc1ccncc1 [Example E-0004] | – | –
41 | 0% | 3% | O=C(Cn1c(-c2ccc(Cl)cc2)c(Cl)nc(NCc2ccccc2)c1=O)NCCc1ccncc1 [Example E-0025] | – | –
42 | 0% | 3% | O=C(Cn1c(-c2ccc3c(c2)OCO3)c(Cl)nc(NCCc2ccc(Cl)cc2)c1=O)NCCc1ccncc1 [Example E-0044] | – | –
43 | 0% | 8% | COc1ccc(-c2c(Cl)nc(NCc3ccccc3)c(=O)n2CC(=O)NCCc2cccnc2)cc1 [Example E-0098] | – | –
44 | 0% | 0% | O=C(Cn1c(Cc2ccccc2)c(Cl)nc(NCc2ccncc2)c1=O)NCCc1ccncc1 [Example E-0064] | – | –
45 | 0% | 3% | COc1ccc(-c2c(Cl)nc(NCCc3ccncc3)c(=O)n2CC(=O)NCCc2ccncc2)cc1 [Example E-0038] | – | –
46 | 0% | 0% | Cc1c(Cl)nc(NCCc2cccnc2)c(=O)n1CC(=O)NCCc1ccncc1 [Example E-0005] | – | –
47 | 5% | 9% | COc1ccc(-c2c(Cl)nc(NCCc3ccc(Cl)cc3)c(=O)n2CC(=O)NCCc2ccncc2)cc1 [Example E-0106] | – | –
48 | 0% | 2% | COc1ccc(-c2c(Cl)nc(NCCc3cccnc3)c(=O)n2CC(=O)NCCc2ccncc2)cc1 [Example E-0037] | – | –
49 | 0% | 2% | O=C(Cn1c(-c2ccc3c(c2)OCO3)c(Cl)nc(NCCN2CCOCC2)c1=O)NCCc1ccncc1 [Example E-0047] | – | –
50 | 0% | 8% | O=C(Cn1c(-c2cccc(Cl)c2)c(Cl)nc(NCc2ccccc2)c1=O)NCCc1cccnc1 [Example E-0074] | – | –
51 | 2% | 11% | COc1ccc(-c2c(Cl)nc(NCCc3cccc(Cl)c3)c(=O)n2CC(=O)NCCc2ccncc2)cc1 [Example E-0103] | – | –
52 | 0% | 5% | O=C(Cn1c(-c2ccc3c(c2)OCO3)c(Cl)nc(NCCc2ccccc2)c1=O)NCCc1ccncc1 [Example E-0042] | – | –
